# Experimental data reported in patent US10538532B2, “Hepatitis B antiviral agents” (ENANTA PHARMACEUTICALS, INC., priority 2016, dated 2020).
# Test system: HBV
# Test: HepAD38 antiviral assay: reduction of viral product accumulation (virion DNA by qPCR, HBsAg or HBeAg by ELISA)
# Assay type: cell-based, hepatitis B virus
# Conditions: HepAD38 cells, five days after compound addition; concentration reducing viral product accumulation by 50% relative to no drug controls; read-out: HepAD38 EC50
# Protocol: Methods: HepAD38 cells are maintained as previously reported (Ladner et al, Antimicrob. Agents Chemother. 1997, […], 1715). Briefly, cells are passaged upon attaining confluency in DMEM/F12 media in the presence of 10% FBS, Penn/Strep, 250 μg/mL G418, and 1 ug/ml tetracycline. Novel compounds are screened by first washing cells three times with PBS to remove tetracycline, and plating in 96 well plates at 35,000 cells/well. Compounds dissolved in DMSO are then diluted 1:200 into wells containing cells. Five days after compound addition, material is harvested for analysis. For an extended 8 day analysis, cells are plated and treated as described above, but media and compound are refreshed on d2 and d5 post initial treatment.
# On harvest day, virion DNA is obtained by lysing with Sidestep Lysis and Stabilization Buffer and then quantified via quantitative real time PCR. Commercially available ELISA kits are used to quantitate the viral proteins HBsAg (Alpco) or HbeAg (US Biological) by following the manufacturer's recommended protocol after diluting samples to match the linear range of their respective assays. Irrespective of readout, compound concentrations that reduce viral product accumulation in the cell lysates or supernatants by 50% relative to no drug controls (EC50) are reported; EC50 ranges are as follows: A<0.1 μM; B 0.1-0.4 μM; C>0.4 μM.
row,Compound,EC50
1,C[C@]1(O)C2CCC1C[C@H](S(=O)(=O)c1cc(C(=O)Nc3cc(F)c(F)c(F)c3)ccc1Cl)C2 [Example 251],> 400 nM

# Same assay, conditions: Hepatitis B virus, HePAD38, 120 h, HepAD38 cells, five days after compound addition; concentration reducing viral product accumulation by 50% relative to no drug controls; read-out: HepAD38 EC50
row,Compound,EC50
1,Cc1ccc(CO/N=C/[C@]2(O)CC3CC[C@@H](C2)[C@H]3S(=O)(=O)c2cc(C(=O)Nc3cc(F)c(F)c(F)c3)ccc2Cl)cc1 [Example 230],100 to 400 nM
2,CC(C)[C@H](N)C(=O)O[C@H]1CC[C@H](S(=O)(=O)c2cc(C(=O)Nc3cc(F)c(F)c(F)c3)ccc2Cl)CC1 [Example 75],100 to 400 nM
3,O=C1CC(S(=O)(=O)c2cc(C(=O)Nc3cc(F)c(F)c(F)c3)ccc2Cl)C1 [Example 33],> 400 nM
4,CC(C)(C)OC(=O)N1CCC(S(=O)(=O)c2cc(C(=O)Nc3cc(F)c(F)c(F)c3)ccc2Cl)CC1 [Example 59],< 100 nM
5,O=C(Nc1cc(F)c(F)c(F)c1)c1ccc(Cl)c(S(=O)(=O)[C@H]2CC[C@@H](CO)CC2)c1 [Example 114],100 to 400 nM
6,COc1cccc(CO/N=C/[C@]2(O)CC3CC[C@@H](C2)[C@H]3S(=O)(=O)c2cc(C(=O)Nc3cc(F)c(F)c(F)c3)ccc2Cl)c1 [Example 237],100 to 400 nM
7,O=C(Nc1cc(F)c(F)c(F)c1)c1ccc(Cl)c(SC2CCCCC2)c1 [Example 11],> 400 nM
8,O=C(Nc1cc(F)c(F)c(F)c1)c1ccc(Cl)c(S(=O)(=O)[C@@H]2C3CC[C@H]2C[C@](O)(CO)C3)c1 [Example 137],100 to 400 nM
9,O=C(Nc1cc(F)c(F)c(F)c1)c1ccc(Cl)c(SCC2CCCCC2)c1 [Example 28],> 400 nM
10,CC(C)[C@H](NC[C@]1(O)C2CCC1C[C@@H](S(=O)(=O)c1cc(C(=O)Nc3cc(F)c(F)c(F)c3)ccc1Cl)C2)C(=O)O [Example 344],> 400 nM
11,O=C(Nc1cc(F)c(F)c(F)c1)c1ccc(Cl)c([S+]([O-])C2CCC=CCC2)c1 (stereo not drawn) [Example 64],> 400 nM
12,O=C(Nc1cc(F)c(F)c(F)c1)c1ccc(Cl)c(S(=O)(=O)Cc2cccc[n+]2[O-])c1 [Example 37],> 400 nM
13,O=C(Nc1cc(F)c(F)c(F)c1)c1ccc(Cl)c(S(=O)(=O)[C@H]2C3CC[C@H]2C[C@](O)(/C=N/OCc2ccccc2)C3)c1 [Example 205],< 100 nM
14,O=C(Nc1cc(F)c(F)c(F)c1)c1ccc(Cl)c(S(=O)(=O)C[C@H]2C3CCC2C[C@H](O)C3)c1 [Example 194],< 100 nM
15,O=C(Nc1cc(F)c(F)c(F)c1)c1ccc(Cl)c(S(=O)(=O)[C@H]2CC3CCC(C2)[C@]3(O)CNC(=O)[C@@H]2CCCN2)c1 [Example 264],< 100 nM
16,CCOC(=O)CS(=O)(=O)c1cc(C(=O)Nc2cc(F)c(F)c(F)c2)ccc1Cl [Example 77],> 400 nM
17,CC(C)(C)OC(=O)N[C@H]1CC[C@H]([S+]([O-])c2cc(C(=O)Nc3cc(F)c(F)c(F)c3)ccc2Cl)CC1 (stereo partly drawn) [Example 55],> 400 nM
18,CC(=O)OCC1=CC2CCC(C1)[C@@H]2S(=O)(=O)c1cc(C(=O)Nc2cc(F)c(F)c(F)c2)ccc1Cl (stereo partly drawn) [Example 140],100 to 400 nM
19,CCOC(=O)C(F)(F)S(=O)(=O)c1cc(C(=O)Nc2cc(F)c(F)c(F)c2)ccc1Cl [Example 93],> 400 nM
20,CCOC(=O)C(CC1CCOCC1)S(=O)(=O)c1cc(C(=O)Nc2cc(F)c(F)c(F)c2)ccc1Cl (stereo not drawn) [Example 116],> 400 nM
21,O=C(Nc1cc(F)c(F)c(F)c1)c1ccc(Cl)c(S(=O)(=O)[C@H]2C3CC[C@H]2C[C@](O)(/C=N/OCc2ccc(C(F)(F)F)cc2)C3)c1 [Example 231],100 to 400 nM
22,O=C(Nc1cc(F)c(F)c(F)c1)c1ccc(Cl)c(S(=O)(=O)C2CCOCC2)c1 [Example 69],100 to 400 nM
23,O=C(Nc1cccc(F)c1)c1ccc(Cl)c(S(=O)(=O)[C@H]2CC[C@H](O)CC2)c1 [Example 65],> 400 nM
24,O=C(Nc1cc(F)c(F)c(F)c1)c1ccc(Cl)c(S(=O)(=O)[C@H]2C3CCC2C[C@H](CN2CCOCC2)C3)c1 [Example 337],100 to 400 nM
25,C[C@H](N)C(=O)O[C@H]1CC[C@H](S(=O)(=O)c2cc(C(=O)Nc3cc(F)c(F)c(F)c3)ccc2Cl)CC1 [Example 6],100 to 400 nM

# Same assay, conditions: Hepatitis B virus, HePAD38, 120 h, read-out: HepAD38 EC50
row,Compound,EC50
1,O=C(Nc1cc(F)c(F)c(F)c1)c1ccc(Cl)c(S(=O)(=O)C2CC3CCC(C2)N3)c1 (stereo not drawn) [Example 266],100 to 400 nM
